“And” between values parts separate entries of the source, which are not always exact repeats. Identical values can stand only once.
How the values were obtained:
[1] = Time course of blood pyruvate concentration after oral gavage (bioavailability of pyruvate); assay type: in vivo, male Sprague-Dawley rats; details: rat; for Blood pyruvate concentration: single animals
Description: The basic measurement is the time course of serum pyruvate concentration following oral administration of tripyruvin, compared with that following oral administration of sodium pyruvate or a placebo.
Six male Sprague-Dawley rats, weighing 380±28 grams (mean±standard deviation), were used in the initial animal experiments. The rats were divided into three groups of two rats each, one group of two for the experimental treatment, one group for the conventional sodium pyruvate treatment, and one group for placebo. The rats were housed in hanging wire cages (two per cage) in a room maintained at 22° C., and were kept on a twelve-hour light/dark cycle with lights on at 7 AM. All animals had free access to water and to standard laboratory rodent chow; except that on nights before an experiment food was removed at 6 PM.
An initial time-course experiment was performed with the crude reaction mixture, in which tripyruvin and free pyruvate were both present (i.e., with the product of “Step 4” n the synthesis described above, without the further purification of “Step 5.”) 1.14 g of this mixture (76% sodium pyruvate, 24% tripyruvin=0.79 total pyruvate) in 2 mL sterile water was fed by gavage in a single dose. For comparison, rats were fed an equivalent amount of pyruvate as sodium pyruvate in water; or were fed a placebo comprising water only. Blood samples (250 μL) taken from a snipped tail vein were collected before feeding, and at 60, 90, 120, and 150 minutes after gavage feeding.
The assay for serum pyruvate concentration was a modification of the Sigma NADH-NAD assay. Collected blood samples were diluted 1:3 in cold 8% perchloric acid (aqueous), and the precipitates were vortexed and centrifuged. Supernatant (100 μL) was pipetted into a microtiter plate. Trizma base (25 μL) was pipetted into the plate, followed by 25 μL of aqueous NADH solution (1 g/2.2 mL). The absorbance of the solution at 340 nm was then measured as a baseline. […] dehydrogenase (50 μL, 10 U/mL) was then pipetted into the plate, and the plate was incubated at 37° C. for 3-5 minutes. Absorbance at 340 nm was again measured (to assay the extent of the reaction NADH→NAD+H^+). Standards and two levels of quality control samples were run with each plate. Results are shown in Table 1 for each of the six rats.

[2] = Solubility in water; assay type: physicochemical
Description: After purification, the identity of the tripyruvin was confirmed by laser-desorption mass spectrometry, elemental analysis, and ^1H nuclear magnetic resonance.

[3] = oral gavage, compared with sodium pyruvate

| Blood pyruvate concentration ([1]; 60 min after single oral gavage dose in 2 mL water) | Blood pyruvate concentration ([1]; 90 min after single oral gavage dose in 2 mL water) | Blood pyruvate concentration ([1]; 120 min after single oral gavage dose in 2 mL water) | Blood pyruvate concentration ([1]; 150 min after single oral gavage dose in 2 mL water) | Blood pyruvate concentration ([1]; time 0 min (before gavage feeding)) | Bioavailability of pyruvate [1, 3] | Rise in blood pyruvate levels [1, 3] | Solubility in water [2] | Structure (SMILES) |
| --- | --- | --- | --- | --- | --- | --- | --- | --- |
| 0.07 mM and 0.10 mM | 0.07 mM and 0.09 mM | 0.12 mM | 0.12 mM and 0.16 mM | 0.07 mM and 0.06 mM | – | – | – | CC(=O)C(=O)[O-].[Na+] [sodium pyruvate] |
| – | – | – | – | – | higher | more rapid rise | freely soluble | CC(=O)C(=O)OCC(COC(=O)C(C)=O)OC(=O)C(C)=O [tripyruvin, tripyruvyl glycerol] |
